Measurements taken from paper PMC10500568, “Inhibition of MurA Enzyme from Escherichia coli by Flavonoids and Their Synthetic Analogues” (ACS Omega, 2023).
Like-named read-outs stand apart in the source and are kept apart here.

Columns and labels:
MurA enzyme from E. coli [1] = molecular target: T1, MurA enzyme from E. coli (Escherichia coli, UniProt P0A749); assay: MurA dilution assay; format: biochemical; conditions: compound at 10 times IC50, 30 min preincubation, then 100-fold dilution
Protocol: The enzyme concentration used was the usual concentration in reactivity assays 100-fold (25 μM). After 30 min of preincubation, the mixture was diluted 100-fold, then the previously described reactivity assay was performed using 100 μM PEP.

S. aureus (ATCC 29213) = assay: Antibacterial assay, broth microdilution MIC; format: cell-based, Staphylococcus aureus
Protocol: (§1) To test antimicrobial properties, a broth microdilution method in 96-well plates was used according to Clinical and Laboratory Standards Institute guidelines[31] and European Committee on Antimicrobial Susceptibility Testing ([…]) recommendations.[32] Bacterial suspensions, equivalent to a 0.5 McFarland turbidity standard, were diluted with cation-adjusted Mueller–Hinton broth with TES buffering (ThermoFisher Scientific) to achieve a final inoculum of 10^5 CFU/mL. Compounds dissolved in 100% DMSO at a concentration of 10 mM were mixed with the inoculum and incubated at 35 °C for 20 h.

MurA enzyme from E. coli [2] = molecular target: T1, MurA enzyme from E. coli; assay: MurA inhibition assay (malachite green, orthophosphate release); format: biochemical; conditions: for effect of DTT on inhibition (comparison of RAs): in the presence of DTT; for inhibitory activity on MurA in at least one of the three assays: residual activity at 100 μM, threshold 50% RA, no preincubation, 30 min preincubation, or 30 min + DTT; for time-dependent inhibition: inactive without preincubation, activity after 30 min of preincubation: 0 min vs 30 min preincubation
Protocol: To determine the inhibition of MurA, the colorimetric assay with malachite green was used to measure the release of orthophosphate generated during the reaction.[30] […] Time-dependent inhibition assays were also performed by preincubating MurA with the 200 μM UNAG substrate and target compounds for 30 min at 37 °C before starting the reaction with the addition of the second substrate 100 μM PEP, resulting in a final mixture volume of 50 μL. The reaction was stopped after a 15 min incubation at 37 °C by adding the Biomol reagent (100 μL, Enzo Life Sciences, New York), and the absorbance was measured after 5 min at 650 nm using a microplate reader (BioTek, Synergy H4). The final concentration of DMSO in the reaction mixture was 5% (v/v), and 1 μM fosfomycin was used as a reference in the MurA assay. The percentage of residual activity was calculated in comparison to the negative controls, which contained only 5% DMSO. IC50 values were determined by measuring residual activities at 7 different concentrations of the compounds and calculated using GraphPad Prism (GraphPad Software, San Diego, California).
The initial screening of flavonoids was performed under three different assay conditions: (1) without preincubation, (2) with a 30 min preincubation, and (3) with the addition of dithiothreitol (DTT) along with a 30 min preincubation. These different conditions were necessary to understand the mechanism of inhibition of each flavonoid. […] To distinguish whether the adduct formed between the inhibitor and the enzyme was covalent or noncovalent, the inhibitory activity was tested in the presence of 0.1 mM DTT.

E. coli (ATCC 25922) = assay: Antibacterial assay, broth microdilution MIC; format: cell-based, Escherichia coli
Protocol: as §1

[3] = Staphylococcus aureus, ATCC29213, S. aureus ATCC 29213, 35 °C, 20 h, read-out: MIC S. aureus
[4] = 100 μM, 30 min preincubation with addition of DTT (0.1 mM), read-out: RA% (residual activity), 30 min + DTT
[5] = 30 min preincubation, read-out: IC50, 30 min
[6] = without preincubation, read-out: IC50, 0 min
[7] = Escherichia coli, ATCC25922, E. coli ATCC 25922, 35 °C, 20 h, read-out: MIC E. coli
[8] = 100 μM, without preincubation, read-out: RA% (residual activity), 0 min

T1 sequence (P0A749 whole entry): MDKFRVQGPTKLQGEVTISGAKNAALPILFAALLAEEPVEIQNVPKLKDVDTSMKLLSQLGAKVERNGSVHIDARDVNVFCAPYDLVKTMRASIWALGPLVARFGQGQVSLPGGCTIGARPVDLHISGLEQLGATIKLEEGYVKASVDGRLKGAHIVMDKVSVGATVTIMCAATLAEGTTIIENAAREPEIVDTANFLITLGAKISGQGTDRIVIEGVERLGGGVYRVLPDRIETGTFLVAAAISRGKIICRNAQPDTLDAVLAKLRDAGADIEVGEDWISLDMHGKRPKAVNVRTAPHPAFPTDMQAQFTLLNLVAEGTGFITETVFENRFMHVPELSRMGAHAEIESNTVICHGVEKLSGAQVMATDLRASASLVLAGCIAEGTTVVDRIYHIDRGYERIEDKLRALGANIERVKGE

## O=c1c(O)c(-c2ccc(O)c(O)c2)oc2cc(O)cc(O)c12 [Compound 9, quercetin]
MurA enzyme from E. coli [1]
  RA% (residual activity), dilution assay: 93%
S. aureus (ATCC 29213); [3]
  MIC: > 250 µM
MurA enzyme from E. coli [2]; [4]
  remaining activity at 100 µM: 46%
MurA enzyme from E. coli [2]; 30 min preincubation
  Hill coefficient, 30 min: 1.3
  effect of DTT on inhibition (comparison of RAs): reduced inhibition in the presence of DTT
MurA enzyme from E. coli [2]; [5]
  IC50: 9.3 µM
MurA enzyme from E. coli [2]
  inhibitory activity on MurA in at least one of the three assays: showed inhibitory activity
MurA enzyme from E. coli [2]; without preincubation
  Hill coefficient, 0 min: 0.8
MurA enzyme from E. coli [2]; [6]
  IC50: 14 µM
E. coli (ATCC 25922); [7]
  MIC: > 250 µM

## O=C1C[C@@H](c2ccccc2)Oc2ccccc21 [Compound 46, flavanone]
MurA enzyme from E. coli [2]
  inhibitory activity on MurA in at least one of the three assays: showed inhibitory activity

## CN(C)[C@@H]1C(O)=C(C(N)=O)C(=O)[C@@]2(O)C(O)=C3C(=O)c4c(O)cccc4[C@@](C)(O)[C@H]3C[C@@H]12 [tetracycline, reference compound]
S. aureus (ATCC 29213); Staphylococcus aureus, ATCC29213, S. aureus ATCC 29213, read-out: MIC S. aureus (positive control)
  MIC: 0.5 µg/mL
E. coli (ATCC 25922); Escherichia coli, ATCC25922, E. coli ATCC 25922, read-out: MIC E. coli (positive control)
  MIC: 1 µg/mL

## O=c1c(O)c(-c2ccc(O)c(O)c2)oc2cc(O)ccc12 [Compound 2, fisetin]
MurA enzyme from E. coli [1]
  RA% (residual activity), dilution assay: 98%
S. aureus (ATCC 29213); [3]
  MIC: > 250 µM
MurA enzyme from E. coli [2]; [4]
  remaining activity at 100 µM: 60%
MurA enzyme from E. coli [2]; 30 min preincubation
  Hill coefficient, 30 min: 1.0
  effect of DTT on inhibition (comparison of RAs): reduced inhibition in the presence of DTT
MurA enzyme from E. coli [2]; [5]
  IC50: 8.8 µM
MurA enzyme from E. coli [2]
  inhibitory activity on MurA in at least one of the three assays: showed inhibitory activity
MurA enzyme from E. coli [2]; without preincubation
  Hill coefficient, 0 min: 1.4
MurA enzyme from E. coli [2]; [6]
  IC50: 91 µM
E. coli (ATCC 25922); [7]
  MIC: > 250 µM

## COc1cc(O)cc2c1C(=O)C[C@@H](c1ccccc1)O2 [Compound 48, (−)-alpinetin]
MurA enzyme from E. coli [1]
  RA% (residual activity), dilution assay: 93%
S. aureus (ATCC 29213); [3]
  MIC: > 250 µM
MurA enzyme from E. coli [2]; 100 μM
  time-dependent inhibition: inactive without preincubation, activity after 30 min of preincubation: active after 30 min of preincubation
MurA enzyme from E. coli [2]; [4]
  remaining activity at 100 µM: 102%
MurA enzyme from E. coli [2]; [8]
  remaining activity at 100 µM: 66%
MurA enzyme from E. coli [2]; 30 min preincubation
  Hill coefficient, 30 min: 1.6
MurA enzyme from E. coli [2]; [5]
  IC50: 57 µM
E. coli (ATCC 25922); [7]
  MIC: > 250 µM

## O=C1c2c(O)cc(O)cc2OC(c2ccc(O)c(O)c2)C1O (centres unmarked) [Compound 47, taxifolin]
MurA enzyme from E. coli [1]
  RA% (residual activity), dilution assay: 93%
S. aureus (ATCC 29213); [3]
  MIC: > 250 µM
MurA enzyme from E. coli [2]; 100 μM
  time-dependent inhibition: inactive without preincubation, activity after 30 min of preincubation: active after 30 min of preincubation
MurA enzyme from E. coli [2]; [4]
  remaining activity at 100 µM: 105%
MurA enzyme from E. coli [2]; [8]
  remaining activity at 100 µM: 98%
MurA enzyme from E. coli [2]; 30 min preincubation
  Hill coefficient, 30 min: 0.5
MurA enzyme from E. coli [2]; [5]
  IC50: 4.5 µM
MurA enzyme from E. coli [2]
  inhibitory activity on MurA in at least one of the three assays: showed inhibitory activity
E. coli (ATCC 25922); [7]
  MIC: > 250 µM

## myricitrin [Compound 5]
MurA enzyme from E. coli [1]
  RA% (residual activity), dilution assay: 97%
S. aureus (ATCC 29213); S. aureus ATCC 29213, 35 °C, 20 h, read-out: MIC S. aureus
  MIC: >250 µM
MurA enzyme from E. coli [2]; 100 μM, 30 min preincubation with addition of DTT (0.1 mM)
  RA% (residual activity), 30 min + DTT: 106%
MurA enzyme from E. coli [2]; 100 μM, without preincubation
  RA% (residual activity), 0 min: 76%
MurA enzyme from E. coli [2]; 30 min preincubation
  Hill coefficient, 30 min: 0.6
MurA enzyme from E. coli [2]
  inhibitory activity on MurA in at least one of the three assays: showed inhibitory activity
E. coli (ATCC 25922); E. coli ATCC 25922, 35 °C, 20 h, read-out: MIC E. coli
  MIC: >250 µM
